Measured values as given in patent publication US11485740B2, “Inhibitors of TRPC6” (Boehringer Ingelheim International GmbH, priority 2018, dated 2022).

Biological target: T1, human TRPC6 (Homo sapiens, UniProt Q9Y210)
T1 construct: expressed in transfected cells
T1 sequence (Q9Y210 1-931): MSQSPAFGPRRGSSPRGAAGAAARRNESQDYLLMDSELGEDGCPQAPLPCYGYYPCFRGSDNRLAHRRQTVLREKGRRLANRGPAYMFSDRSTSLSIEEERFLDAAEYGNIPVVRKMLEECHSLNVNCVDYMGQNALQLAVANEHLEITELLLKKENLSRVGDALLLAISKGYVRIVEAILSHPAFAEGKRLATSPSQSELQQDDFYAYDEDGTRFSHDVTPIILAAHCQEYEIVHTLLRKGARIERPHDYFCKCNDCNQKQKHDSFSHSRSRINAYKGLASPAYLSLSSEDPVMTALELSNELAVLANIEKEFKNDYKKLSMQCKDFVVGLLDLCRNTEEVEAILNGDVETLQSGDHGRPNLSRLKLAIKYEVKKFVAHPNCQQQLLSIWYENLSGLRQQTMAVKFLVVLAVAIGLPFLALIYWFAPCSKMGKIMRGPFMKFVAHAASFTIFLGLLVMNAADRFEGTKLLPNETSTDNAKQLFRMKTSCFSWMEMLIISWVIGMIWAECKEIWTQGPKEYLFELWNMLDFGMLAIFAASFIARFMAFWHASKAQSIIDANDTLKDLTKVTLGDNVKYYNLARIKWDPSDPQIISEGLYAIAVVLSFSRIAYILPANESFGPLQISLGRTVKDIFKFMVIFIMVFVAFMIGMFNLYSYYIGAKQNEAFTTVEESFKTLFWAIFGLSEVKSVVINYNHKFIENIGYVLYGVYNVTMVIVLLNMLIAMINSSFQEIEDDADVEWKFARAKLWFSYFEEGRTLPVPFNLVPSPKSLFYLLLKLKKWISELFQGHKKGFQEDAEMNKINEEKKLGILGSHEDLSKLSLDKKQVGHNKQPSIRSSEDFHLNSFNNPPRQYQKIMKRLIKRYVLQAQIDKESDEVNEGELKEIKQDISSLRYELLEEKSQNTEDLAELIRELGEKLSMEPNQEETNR
Test: High throughput screening assay: Fluo4/AM calcium fluorescence in HEK293/TREx cells expressing human TRPC6, agonist GSK1702934A (single concentration 10 μM and IC50 curves)
Format: cell-based
Conditions: antagonist effect against human TRPC6, 7 concentrations 20 μM to 0.027 μM, triplicate
In short: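 HEK293/TREx cells stably carrying tetracycline-induced (1 μg/ml) human TRPC6, loaded with Fluo4/AM (0.5 μM, 60 min, RT), pretreated 2 min with compound (10 μM final in screen), then stimulated with GSK1702934A in high-Ca2+ Ringer's (20 mM Ca2+ final). Fluorescence ratio over ~3 min normalized to no-compound and control-blocker wells; IC50 from triplicate curves.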

Row | IC50 [nM] | SMILES
1 | 420 | COc1cc(C(=O)N2CCC(c3ccc(N)nn3)CC2)ncc1-c1ccc(C(F)(F)F)cc1Cl [Compound 24, [4-(6-Amino-pyridazin-3-yl)-piperidin-1-yl]-[5-(2-chloro-4-trifluoromethyl-phenyl)-4-methoxy-pyridin-2-yl]-methanone]
2 | 200 | COc1cc(C(=O)N2CCC(c3ccc(N)nn3)CC2)ncc1-c1ccc(OCC(F)(F)F)nc1 [Compound 47, [4-(6-Amino-pyridazin-3-yl)-piperidin-1-yl]-[4-methoxy-6′-(2,2,2-trifluoro-ethoxy)-[3,3′]bipyridinyl-6-yl]-methanone]
3 | 9200 | CC(C)(C)c1ccc(-c2ccc(C(=O)N3CCC(c4ccc(N)nn4)CC3)cc2)cc1 [Compound 10, [4-(6-Amino-pyridazin-3-yl)-piperidin-1-yl]-(4′-tert-butyl-biphenyl-4-yl)-methanone]
4 | 1400 | COc1cc(C(=O)N2CCC(c3ccc(N)nn3)CC2)ncc1-c1ccc(OC2CC2)nc1 [Compound 112, [4-(6-Amino-pyridazin-3-yl)-piperidin-1-yl]-(6′-cyclopropoxy-4-methoxy-[3,3′]bipyridinyl-6-yl)-methanone]
5 | 27 | COc1cc(C(=O)N2CCN(c3cnc(N)cc3C)C[C@@H]2CO)ncc1-c1ccc(F)cc1 [Compound 93, [(R)-4-(6-Amino-4-methyl-pyridin-3-yl)-2-hydroxymethyl-piperazin-1-yl]-[5-(4-fluoro-phenyl)-4-methoxy-pyridin-2-yl]-methanone]
6 | 27 | COc1cc(C(=O)N2CCC(c3ccc(N)nn3)CC2)ncc1-c1ccc(F)cc1 [Compound 36, 6-{1-[5-(4-Fluorophenyl)-4-methoxypyridine-2-carbonyl]piperidin-4-yl}pyridazin-3-amine]
7 | 130 | COc1cc(C(=O)N2CCC(c3cnc(N)cc3OC)CC2)ncc1-c1ccc(C(F)(F)F)cc1 [Compound 84, (6-Amino-4-methoxy-3′,4′,5′,6′-tetrahydro-2′H-[3,4′]bipyridinyl-1′-yl)-[4-methoxy-5-(4-trifluoromethyl-phenyl)-pyridin-2-yl]-methanone]
8 | 1100 | COc1cc(C(=O)N2CCC(c3ccc(N)nn3)CC2)ccc1-c1cnc(OC(C)C)nc1 [Compound 62, [4-(6-Amino-pyridazin-3-yl)-piperidin-1-yl]-[4-(2-isopropoxy-pyrimidin-5-yl)-3-methoxy-phenyl]-methanone]
9 | 88 | COc1cc(-c2cnc(C(=O)N3CCC(c4ccc(N)nn4)CC3)cc2OC)ccc1OC(F)(F)F [Compound 13]
10 | 320 | COc1cc(C(=O)N2CCC(c3ccc(N)nn3)CC2)ncc1-c1ccc(OC(F)F)cc1 [Compound 39, [4-(6-Amino-pyridazin-3-yl)-piperidin-1-yl]-[5-(4-difluoromethoxy-phenyl)-4-methoxy-pyridin-2-yl]-methanone]
11 | 540 | COc1cc(C(=O)N2CCN(c3cnc(N)cc3OC)C[C@H]2CO)ncc1-c1ccccc1 [Compound 89, [(S)-4-(6-Amino-4-methoxy-pyridin-3-yl)-2-hydroxymethyl-piperazin-1-yl]-(4-methoxy-5-phenyl-pyridin-2-yl)-methanone]
12 | 1700 | COc1cc(C(=O)N2CCC(c3ccc(N)nn3)CC2)ncc1-c1ccc(F)c(OCC(F)(F)F)c1 [Compound 15, [4-(6-Amino-pyridazin-3-yl)-piperidin-1-yl]-{5-(4-fluoro-3-(2,2,2-trifluoro-ethoxy)-phenyl]-4-methoxy-pyridin-2-yl}-methanone]
13 | 340 | COc1cc(C(=O)N2CCC(c3ccc(N)nn3)CC2)ccc1-c1ccc(OCC2CC2)nc1 [Compound 82, [4-(6-Amino-pyridazin-3-yl)-piperidin-1-yl]-[4-(6-cyclopropylmethoxy-pyridin-3-yl)-3-methoxy-phenyl]-methanone]
14 | 94 | COc1cc(C(=O)N2CCC(c3ccc(N)nn3)CC2)ncc1-c1ccc(OC(F)(F)F)cc1 [Compound 31, [4-(6-Amino-pyridazin-3-yl)-piperidin-1-yl]-[4-methoxy-5-(4-trifluoromethoxy-phenyl)-pyridin-2-yl]-methanone]
15 | 100 | COc1cc(C(=O)N2CCC(c3ccc(N)nn3)CC2)ncc1-c1ccc(C)c(F)c1 [Compound 34, [4-(6-Amino-pyridazin-3-yl)-piperidin-1-yl]-[5-(3-fluoro-4-methyl-phenyl)-4-methoxy-pyridin-2-yl]-methanone]
16 | 2500 | COc1ccc(-c2ccc(C(=O)N3CCC(c4ccc(N)nn4)CC3)cc2)cc1 [Compound 5, [4-(6-Amino-pyridazin-3-yl)-piperidin-1-yl]-(4′-methoxy-biphenyl-4-yl)-methanone]
17 | 56 | COc1cc(C(=O)N2CCN(c3cnc(N)cc3C)C[C@@H]2CO)ncc1-c1ccc(C(F)(F)F)cc1 [Compound 92, [(R)-4-(6-Amino-4-methyl-pyridin-3-yl)-2-hydroxymethyl-piperazin-1-yl]-[4-methoxy-5-(4-trifluoromethyl-phenyl)-pyridin-2-yl]-methanone]
18 | 130 | COc1cc(C(=O)N2CCC(c3ccc(N)nn3)CC2)ncc1-c1ccc(OC(F)(F)F)nc1 [Compound 48, [4-(6-Amino-pyridazin-3-yl)-piperidin-1-yl]-(4-methoxy-6′-trifluoromethoxy-[3,3′]bipyridinyl-6-yl)-methanone]
19 | 27 | COc1cc(C(=O)N2CCC(c3ccc(N)nc3)CC2)ncc1-c1ccccc1 [Compound 71, 5-[1-(4-Methoxy-5-phenylpyridine-2-carbonyl)piperidin-4-yl]pyridin-2-amine]
20 | 1700 | Cc1ccc(-c2ccc(C(=O)N3CCC(c4ccc(N)nn4)CC3)cc2)cc1 [Compound 3, [4-(6-Amino-pyridazin-3-yl)-piperidin-1-yl]-(4′-methyl-biphenyl-4-yl)-methanone]
21 | 930 | COc1cc(C(=O)N2CCC(c3ccc(N)nn3)CC2)ccc1-c1ccccc1 [Compound 60, [4-(6-Amino-pyridazin-3-yl)-piperidin-1-yl]-(2-methoxy-biphenyl-4-yl)-methanone]
22 | 400 | COc1cc(C(=O)N2CCN(c3cnc(N)cc3OC)C[C@H]2CC(F)F)ncc1-c1ccc(C(F)(F)F)cc1 (single isomer, unassigned) [Compound 110]
23 | 4000 | COc1ccc(-c2cnc(C(=O)N3CCC(c4ccc(N)nn4)CC3)cc2OC)cn1 [Compound 46, [4-(6-Amino-pyridazin-3-yl)-piperidin-1-yl]-(4,6′-dimethoxy-[3,3′]bipyridinyl-6-yl)-methanone]
24 | 300 | COC[C@H]1CN(c2cnc(N)cc2OC)CCN1C(=O)c1cc(OC)c(-c2ccc(C(F)(F)F)cc2)cn1 [Compound 99, [(R)-4-(6-Amino-4-methoxy-pyridin-3-yl)-2-methoxymethyl-piperazin-1-yl]-[4-methoxy-5-(4-trifluoromethyl-phenyl)-pyridin-2-yl]-methanone]
25 | 540 | COc1cc(C(=O)N2CCC(c3nnc(N)cc3OC)CC2)ncc1-c1ccccc1 [Compound 87, [4-(6-Amino-4-methoxy-pyridazin-3-yl)-piperidin-1-yl]-(4-methoxy-5-phenyl-pyridin-2-yl)-methanone]
26 | 700 | COc1cc(C(=O)N2CCN(c3cnc(N)cc3OC)CC2CC(F)F)ncc1-c1ccc(C(F)(F)F)cc1 (stereo not drawn) [Compound 108, [4-(6-Amino-4-methoxy-pyridin-3-yl)-2-(2,2-difluoro-ethyl)-piperazin-1-yl]-[4-methoxy-5-(4-trifluoromethyl-phenyl)-pyridin-2-yl]-methanone]
27 | 6700 | Nc1ccc(C2CCN(C(=O)c3ccc(-c4cccc(F)c4)cc3)CC2)nn1 [Compound 8, [4-(6-Amino-pyridazin-3-yl)-piperidin-1-yl]-(3′-fluoro-biphenyl-4-yl)-methanone]
28 | 220 | COc1cc(C(=O)N2CCC(c3ccc(N)nn3)CC2)ncc1-c1cccc(F)c1 [Compound 35, 6-{1-[5-(3-Fluorophenyl)-4-methoxypyridine-2-carbonyl]piperidin-4-yl}pyridazin-3-amine]
29 | 250 | COc1cc(C(=O)N2C[C@@H]3C[C@H]2CN3c2ccc(N)nn2)ccc1-c1ccc(C(F)(F)F)cc1 [Compound 115, [(1S,4S)-5-(6-Amino-pyridazin-3-yl)-2,5-diaza-bicyclo[2.2.1]hept-2-yl]-(2-methoxy-4′-trifluoromethyl-biphenyl-4-yl)-methanone]
30 | 160 | COc1cc(C(=O)N2CCC(c3ccc(N)nn3)CC2)ncc1-c1cccc(OCC2CC2)c1 [Compound 21, [4-(6-Amino-pyridazin-3-yl)-piperidin-1-yl]-[5-(3-cyclopropylmethoxy-phenyl)-4-methoxy-pyridin-2-yl]-methanone]
